Reference: the supplement of paper PMC10307832

Columns and labels:
Assay in all cases: relative viability (nuclei count vs DMSO), 5 days (fraction); higher = more cells survive
[1] = test system: HCC-44
Procedure, shortened: (§1)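 Lung cancer cell lines in 1536-well plates got either a single drug or a fixed anchor-drug dose together with five library-drug doses (not always all listed) in √10 steps, by pin tool, on the day after seeding. Nuclei were counted after 5 days, and relative viability is the treated-to-vehicle ratio of nuclei counts. Values are medians of duplicate plates.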

[2] = test system: NCI-H2085
Procedure, shortened: as §1

[3] = test system: NCI-H2170
Procedure, shortened: as §1

[4] = test system: EPLC-272H
Procedure, shortened: as §1

[5] = test system: EKVX
Procedure, shortened: as §1

[6] = test system: LOU-NH91
Procedure, shortened: as §1

[7] = test system: NCI-H2023
Procedure, shortened: as §1

[8] = test system: NCI-H2405
Procedure, shortened: as §1

[9] = test system: PC-14
Procedure, shortened: as §1

[10] = test system: NCI-H1793
Procedure, shortened: as §1

[11] = test system: NCI-H1650
Procedure, shortened: as §1

[12] = test system: SW 900
Procedure, shortened: as §1

[13] = test system: NCI-H3122
Procedure, shortened: as §1

[14] = test system: COR-L23
Procedure, shortened: as §1

[15] = test system: NCI-H1734
Procedure, shortened: as §1

[16] = test system: ABC-1
Procedure, shortened: as §1

[17] = test system: NCI-H520
Procedure, shortened: as §1

[18] = test system: NCI-H441
Procedure, shortened: as §1

[19] = test system: NCI-H2347
Procedure, shortened: as §1

[20] = test system: 201T
Procedure, shortened: as §1

[21] = test system: RERF-LC-KJ
Procedure, shortened: as §1

[22] = test system: NCI-H647
Procedure, shortened: as §1

[23] = test system: NCI-H1993
Procedure, shortened: as §1

## C[C@@H]1CN(CC(=O)Nc2ccc3c(c2)Cc2cccc(-c4cc(=O)cc(N5CCOCC5)o4)c2S3)C[C@H](C)O1 + O=C(c1cc(Cc2n[nH]c(=O)c3ccccc23)ccc1F)N1CCN(C(=O)C2CC2)CC1 [Olaparib] (partner 8 µM)
[1]; first compound 0.04 µM
  relative viability: 0.94
[1]; first compound 0.1265 µM
  relative viability: 1.02
[1]; first compound 0.4 µM
  relative viability: 0.955
[1]; first compound 4 µM
  relative viability: 0.969
[2]; first compound 0.04 µM
  relative viability: 0.755
[2]; first compound 0.1265 µM
  relative viability: 0.786
[2]; first compound 0.4 µM
  relative viability: 0.781
[2]; first compound 4 µM
  relative viability: 0.345
[3]; first compound 0.04 µM
  relative viability: 0.648
[3]; first compound 0.1265 µM
  relative viability: 0.609
[3]; first compound 0.4 µM
  relative viability: 0.578
[3]; first compound 4 µM
  relative viability: 0.523
[4]; first compound 0.04 µM
  relative viability: 0.956
[4]; first compound 0.1265 µM
  relative viability: 0.81
[4]; first compound 0.4 µM
  relative viability: 0.647
[4]; first compound 4 µM
  relative viability: 0.317
[5]; first compound 0.04 µM
  relative viability: 0.862
[5]; first compound 0.1265 µM
  relative viability: 0.921
[5]; first compound 0.4 µM
  relative viability: 0.914
[5]; first compound 4 µM
  relative viability: 0.399
[6]; first compound 0.04 µM
  relative viability: 0.938
[6]; first compound 0.1265 µM
  relative viability: 0.964
[6]; first compound 0.4 µM
  relative viability: 0.907
[6]; first compound 4 µM
  relative viability: 0.721
[7]; first compound 0.04 µM
  relative viability: 0.441
[7]; first compound 0.1265 µM
  relative viability: 0.371
[7]; first compound 0.4 µM
  relative viability: 0.329
[7]; first compound 4 µM
  relative viability: 0.148
[8]; first compound 0.04 µM
  relative viability: 0.938
[8]; first compound 0.1265 µM
  relative viability: 0.93
[8]; first compound 0.4 µM
  relative viability: 0.837
[8]; first compound 4 µM
  relative viability: 0.578
[9]; first compound 0.04 µM
  relative viability: 0.249
[9]; first compound 0.1265 µM
  relative viability: 0.169
[9]; first compound 0.4 µM
  relative viability: 0.205
[9]; first compound 4 µM
  relative viability: 0.09
[10]; first compound 0.04 µM
  relative viability: 1.01
[10]; first compound 0.1265 µM
  relative viability: 0.784
[10]; first compound 0.4 µM
  relative viability: 0.86
[10]; first compound 4 µM
  relative viability: 0.255
[11]; first compound 0.04 µM
  relative viability: 0.731
[11]; first compound 0.1265 µM
  relative viability: 0.713
[11]; first compound 0.4 µM
  relative viability: 0.967
[11]; first compound 4 µM
  relative viability: 0.282
[12]; first compound 0.04 µM
  relative viability: 0.869
[12]; first compound 0.1265 µM
  relative viability: 0.993
[12]; first compound 0.4 µM
  relative viability: 0.815
[12]; first compound 4 µM
  relative viability: 0.445
[13]; first compound 0.04 µM
  relative viability: 0.607
[13]; first compound 0.1265 µM
  relative viability: 0.591
[13]; first compound 0.4 µM
  relative viability: 0.645
[13]; first compound 4 µM
  relative viability: 0.518
[14]; first compound 0.04 µM
  relative viability: 0.39
[14]; first compound 0.1265 µM
  relative viability: 0.329
[14]; first compound 0.4 µM
  relative viability: 0.323
[14]; first compound 4 µM
  relative viability: 0.185
[15]; first compound 0.04 µM
  relative viability: 0.73
[15]; first compound 0.1265 µM
  relative viability: 0.573
[15]; first compound 0.4 µM
  relative viability: 0.613
[15]; first compound 4 µM
  relative viability: 0.551
[16]; first compound 0.04 µM
  relative viability: 0.729
[16]; first compound 0.1265 µM
  relative viability: 1.22
[16]; first compound 0.4 µM
  relative viability: 0.804
[16]; first compound 4 µM
  relative viability: 1.08
[17]; first compound 0.04 µM
  relative viability: 0.43
[17]; first compound 0.1265 µM
  relative viability: 0.308
[17]; first compound 0.4 µM
  relative viability: 0.31
[17]; first compound 4 µM
  relative viability: 0.202
[18]; first compound 0.04 µM
  relative viability: 0.636
[18]; first compound 0.1265 µM
  relative viability: 0.551
[18]; first compound 0.4 µM
  relative viability: 0.507
[18]; first compound 4 µM
  relative viability: 0.141
[19]; first compound 0.04 µM
  relative viability: 0.636
[19]; first compound 0.1265 µM
  relative viability: 0.545
[19]; first compound 0.4 µM
  relative viability: 0.57
[19]; first compound 4 µM
  relative viability: 0.448
[20]; first compound 0.04 µM
  relative viability: 0.839
[20]; first compound 0.1265 µM
  relative viability: 0.816
[20]; first compound 0.4 µM
  relative viability: 0.793
[20]; first compound 4 µM
  relative viability: 0.783
[21]; first compound 0.04 µM
  relative viability: 0.917
[21]; first compound 0.1265 µM
  relative viability: 0.984
[21]; first compound 0.4 µM
  relative viability: 1.01
[21]; first compound 4 µM
  relative viability: 0.323
[22]; first compound 0.04 µM
  relative viability: 0.611
[22]; first compound 0.1265 µM
  relative viability: 0.436
[22]; first compound 0.4 µM
  relative viability: 0.417
[22]; first compound 4 µM
  relative viability: 0.0936
[23]; first compound 0.04 µM
  relative viability: 1.06
[23]; first compound 0.1265 µM
  relative viability: 0.963
[23]; first compound 0.4 µM
  relative viability: 0.942
[23]; first compound 4 µM
  relative viability: 0.81

## CC(C)Oc1cc(Nc2nc(N[C@@H](C)c3ccc(F)cn3)ncc2Cl)n[nH]1 [AZ23] + CC(=O)c1c(C)c2cnc(Nc3ccc(N4CCNCC4)cn3)nc2n(C2CCCC2)c1=O [Palbociclib] (partner 0.5 µM)
[1]; first compound 0.01 µM
  relative viability: 0.982
[1]; first compound 0.03162 µM
  relative viability: 0.994
[1]; first compound 0.3162 µM
  relative viability: 0.93
[2]; first compound 0.01 µM
  relative viability: 0.435
[2]; first compound 0.03162 µM
  relative viability: 0.469
[2]; first compound 0.3162 µM
  relative viability: 0.435
[3]; first compound 0.01 µM
  relative viability: 0.451
[3]; first compound 0.03162 µM
  relative viability: 0.645
[3]; first compound 0.3162 µM
  relative viability: 0.473
[4]; first compound 0.03162 µM
  relative viability: 0.279
[4]; first compound 0.3162 µM
  relative viability: 0.315
[5]; first compound 0.01 µM
  relative viability: 0.392
[5]; first compound 0.03162 µM
  relative viability: 0.414
[5]; first compound 0.3162 µM
  relative viability: 0.358
[6]; first compound 0.01 µM
  relative viability: 0.574
[6]; first compound 0.03162 µM
  relative viability: 0.544
[6]; first compound 0.3162 µM
  relative viability: 0.546
[7]; first compound 0.03162 µM
  relative viability: 0.369
[7]; first compound 0.3162 µM
  relative viability: 0.264
[8]; first compound 0.01 µM
  relative viability: 0.585
[8]; first compound 0.03162 µM
  relative viability: 0.52
[8]; first compound 0.3162 µM
  relative viability: 0.589
[9]; first compound 0.01 µM
  relative viability: 0.492
[9]; first compound 0.03162 µM
  relative viability: 0.567
[9]; first compound 0.3162 µM
  relative viability: 0.577
[10]; first compound 0.01 µM
  relative viability: 0.347
[10]; first compound 0.03162 µM
  relative viability: 0.35
[10]; first compound 0.3162 µM
  relative viability: 0.247
[11]; first compound 0.01 µM
  relative viability: 0.303
[11]; first compound 0.03162 µM
  relative viability: 0.439
[11]; first compound 0.3162 µM
  relative viability: 0.378
[12]; first compound 0.01 µM
  relative viability: 0.653
[12]; first compound 0.3162 µM
  relative viability: 0.501
[13]; first compound 0.01 µM
  relative viability: 0.197
[13]; first compound 0.03162 µM
  relative viability: 0.173
[13]; first compound 0.3162 µM
  relative viability: 0.23
[14]; first compound 0.01 µM
  relative viability: 0.239
[14]; first compound 0.03162 µM
  relative viability: 0.301
[14]; first compound 0.3162 µM
  relative viability: 0.254
[15]; first compound 0.01 µM
  relative viability: 0.317
[15]; first compound 0.03162 µM
  relative viability: 0.366
[15]; first compound 0.3162 µM
  relative viability: 0.359
[16]; first compound 0.01 µM
  relative viability: 0.765
[16]; first compound 0.03162 µM
  relative viability: 0.82
[16]; first compound 0.3162 µM
  relative viability: 0.694
[17]; first compound 0.01 µM
  relative viability: 0.236
[17]; first compound 0.03162 µM
  relative viability: 0.193
[17]; first compound 0.3162 µM
  relative viability: 0.177
[18]; first compound 0.01 µM
  relative viability: 0.199
[18]; first compound 0.03162 µM
  relative viability: 0.198
[18]; first compound 0.3162 µM
  relative viability: 0.202
[19]; first compound 0.01 µM
  relative viability: 0.441
[19]; first compound 0.03162 µM
  relative viability: 0.418
[19]; first compound 0.3162 µM
  relative viability: 0.398
[20]; first compound 0.01 µM
  relative viability: 0.359
[20]; first compound 0.03162 µM
  relative viability: 0.38
[20]; first compound 0.3162 µM
  relative viability: 0.372
[21]; first compound 0.01 µM
  relative viability: 1.13
[21]; first compound 0.03162 µM
  relative viability: 1.14
[21]; first compound 0.3162 µM
  relative viability: 1.14
[22]; first compound 0.01 µM
  relative viability: 0.408
[22]; first compound 0.03162 µM
  relative viability: 0.405
[22]; first compound 0.3162 µM
  relative viability: 0.466
[23]; first compound 0.01 µM
  relative viability: 0.559
[23]; first compound 0.03162 µM
  relative viability: 0.695
[23]; first compound 0.3162 µM
  relative viability: 0.477
